Target: T1, PSMA expressing PC3 PiP cells (Homo sapiens, UniProt Q04609)
T1 construct: expressed in transfected cells; host or cells: PC3 PIP cells
Assay: Binding of the PSMA targeting photoacoustic compound to PSMA-expressing PC3 PIP cells

T1 sequence (Q04609 whole entry): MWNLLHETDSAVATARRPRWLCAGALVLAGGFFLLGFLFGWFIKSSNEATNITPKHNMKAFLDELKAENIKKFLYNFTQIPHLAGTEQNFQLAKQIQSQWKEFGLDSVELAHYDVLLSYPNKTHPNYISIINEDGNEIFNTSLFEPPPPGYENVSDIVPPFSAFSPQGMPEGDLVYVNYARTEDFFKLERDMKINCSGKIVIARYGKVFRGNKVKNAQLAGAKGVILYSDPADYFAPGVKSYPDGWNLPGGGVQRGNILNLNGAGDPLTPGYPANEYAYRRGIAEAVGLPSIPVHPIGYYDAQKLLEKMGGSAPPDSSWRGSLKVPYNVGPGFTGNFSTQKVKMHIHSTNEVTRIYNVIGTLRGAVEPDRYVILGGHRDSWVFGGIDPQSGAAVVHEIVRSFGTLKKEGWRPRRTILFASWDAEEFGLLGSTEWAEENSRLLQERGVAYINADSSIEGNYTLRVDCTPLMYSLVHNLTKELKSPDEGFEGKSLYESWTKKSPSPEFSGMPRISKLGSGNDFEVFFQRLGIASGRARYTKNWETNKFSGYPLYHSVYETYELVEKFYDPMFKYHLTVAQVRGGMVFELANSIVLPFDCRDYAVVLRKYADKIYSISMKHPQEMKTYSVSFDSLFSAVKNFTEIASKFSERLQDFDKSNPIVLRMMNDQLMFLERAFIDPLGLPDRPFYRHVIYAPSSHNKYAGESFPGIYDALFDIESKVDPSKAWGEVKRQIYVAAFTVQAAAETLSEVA

O=C(O)CCC(CP(=O)(O)O)C(=O)O (stereo not shown) [2-PMPA, 2-(phosphonomethyl)pentane-1,5 dioic acid]
blocking of binding to PC3 PIP cells by co-incubation with 2-PMPA: efficiently blocked

Reference: patent publication US10869940B2, “Targeted photoacoustic compounds, formulations, and uses thereof” (The Board of Trustees of the Leland Stanford Junior …, priority 2015, dated 2020)
